# Source: ChEMBL document CHEMBL1201862, “PubChem BioAssay data set” (2004)
# Calls of active or inactive are those of the source.
# Assays:
# [1] = tested on: HEK293; assay: cytotoxicity in HEK293T NF-kB-Luc cells, SAR follow-up, cytotoxicity control for NF-kB activator project, cell-based, resazurin fluorescence (AID 493251); format: functional; details: Homo sapiens
# [2] = tested on: HEK293; assay: SAR Analysis of small molecule inhibitors of B-cell specific antigen receptor-induced NF-kB activation in a HEK-293T cell line using a luminescence assay - Set 2. [Related pubchem assays (depositor defined):AID435022, AID435025, AID489021]; format: functional, cell-based; details: Homo sapiens
# [3] = tested on: Jurkat; assay: SAR Analysis of small molecule inhibitors of […] specific antigen receptor-induced NF-kB activation in a Jurkat cell line using a luminescence assay - Set 3. [Related pubchem assays (depositor defined):AID435022, AID435025, AID465]; format: functional, cell-based; details: Homo sapiens
# [4] = molecular target: Wee1-like protein kinase (Homo sapiens, UniProt P30291); assay: Navigating the Kinome. Panel member name: WEE1; format: functional
# [5] = molecular target: Cell division cycle 7-related protein kinase (Homo sapiens, UniProt O00311); format: functional;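 also: value obtained from a kinome-wide kinase panel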
# Cell division cycle 7-related protein kinase, sequence (O00311 whole entry): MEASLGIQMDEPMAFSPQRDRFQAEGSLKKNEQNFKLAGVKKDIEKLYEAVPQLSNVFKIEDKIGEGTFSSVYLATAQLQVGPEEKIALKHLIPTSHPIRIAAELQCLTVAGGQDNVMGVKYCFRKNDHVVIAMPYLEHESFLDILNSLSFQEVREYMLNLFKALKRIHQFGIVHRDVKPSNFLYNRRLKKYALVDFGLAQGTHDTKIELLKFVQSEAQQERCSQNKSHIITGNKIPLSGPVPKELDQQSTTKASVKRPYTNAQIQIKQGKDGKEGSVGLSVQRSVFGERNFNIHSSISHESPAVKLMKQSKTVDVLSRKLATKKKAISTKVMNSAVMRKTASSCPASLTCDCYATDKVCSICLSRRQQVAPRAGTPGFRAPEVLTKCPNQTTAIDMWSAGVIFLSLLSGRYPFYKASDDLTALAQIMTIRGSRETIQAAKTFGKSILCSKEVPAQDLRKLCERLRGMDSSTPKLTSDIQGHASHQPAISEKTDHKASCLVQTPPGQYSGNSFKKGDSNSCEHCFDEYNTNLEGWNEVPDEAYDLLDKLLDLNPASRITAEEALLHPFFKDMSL
# [6] = molecular target: Tyrosine-protein kinase Fyn (Homo sapiens, UniProt P06241); format: functional
# [7] = molecular target: Serine/threonine-protein kinase TAO1 (Homo sapiens, UniProt Q7L7X3); format: functional
# Serine/threonine-protein kinase TAO1, sequence (Q7L7X3 whole entry): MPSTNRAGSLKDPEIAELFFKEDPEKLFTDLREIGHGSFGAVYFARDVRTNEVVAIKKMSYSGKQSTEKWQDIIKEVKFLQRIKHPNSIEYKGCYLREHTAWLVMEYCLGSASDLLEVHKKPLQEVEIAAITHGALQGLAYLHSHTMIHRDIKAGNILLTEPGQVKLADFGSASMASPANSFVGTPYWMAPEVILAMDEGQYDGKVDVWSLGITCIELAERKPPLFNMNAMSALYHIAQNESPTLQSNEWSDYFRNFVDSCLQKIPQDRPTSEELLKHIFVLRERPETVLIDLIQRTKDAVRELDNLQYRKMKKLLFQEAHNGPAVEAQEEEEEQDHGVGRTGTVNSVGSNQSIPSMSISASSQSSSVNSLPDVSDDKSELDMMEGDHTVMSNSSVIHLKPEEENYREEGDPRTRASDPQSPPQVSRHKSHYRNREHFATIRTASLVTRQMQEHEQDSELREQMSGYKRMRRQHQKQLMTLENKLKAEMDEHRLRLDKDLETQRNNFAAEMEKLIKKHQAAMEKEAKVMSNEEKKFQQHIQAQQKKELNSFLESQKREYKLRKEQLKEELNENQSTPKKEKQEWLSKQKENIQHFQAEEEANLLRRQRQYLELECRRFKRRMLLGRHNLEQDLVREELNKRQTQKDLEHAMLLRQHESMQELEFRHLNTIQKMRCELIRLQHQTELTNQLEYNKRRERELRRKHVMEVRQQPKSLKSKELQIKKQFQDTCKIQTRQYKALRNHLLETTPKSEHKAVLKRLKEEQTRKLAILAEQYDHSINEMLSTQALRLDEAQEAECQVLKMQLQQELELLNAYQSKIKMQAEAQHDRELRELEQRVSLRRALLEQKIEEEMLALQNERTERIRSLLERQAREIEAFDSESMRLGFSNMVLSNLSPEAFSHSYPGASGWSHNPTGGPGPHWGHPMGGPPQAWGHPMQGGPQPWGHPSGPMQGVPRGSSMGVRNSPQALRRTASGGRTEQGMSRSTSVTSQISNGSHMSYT
# [8] = molecular target: Insulin-like growth factor 1 receptor (Homo sapiens, UniProt P08069); assay: Navigating the Kinome. Panel member name: IGF1R; format: functional
# [9] = molecular target: Focal adhesion kinase 1 (Homo sapiens, UniProt Q05397); format: functional;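 also: measured as one member of a kinome panel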
# Focal adhesion kinase 1, sequence (Q05397 whole entry): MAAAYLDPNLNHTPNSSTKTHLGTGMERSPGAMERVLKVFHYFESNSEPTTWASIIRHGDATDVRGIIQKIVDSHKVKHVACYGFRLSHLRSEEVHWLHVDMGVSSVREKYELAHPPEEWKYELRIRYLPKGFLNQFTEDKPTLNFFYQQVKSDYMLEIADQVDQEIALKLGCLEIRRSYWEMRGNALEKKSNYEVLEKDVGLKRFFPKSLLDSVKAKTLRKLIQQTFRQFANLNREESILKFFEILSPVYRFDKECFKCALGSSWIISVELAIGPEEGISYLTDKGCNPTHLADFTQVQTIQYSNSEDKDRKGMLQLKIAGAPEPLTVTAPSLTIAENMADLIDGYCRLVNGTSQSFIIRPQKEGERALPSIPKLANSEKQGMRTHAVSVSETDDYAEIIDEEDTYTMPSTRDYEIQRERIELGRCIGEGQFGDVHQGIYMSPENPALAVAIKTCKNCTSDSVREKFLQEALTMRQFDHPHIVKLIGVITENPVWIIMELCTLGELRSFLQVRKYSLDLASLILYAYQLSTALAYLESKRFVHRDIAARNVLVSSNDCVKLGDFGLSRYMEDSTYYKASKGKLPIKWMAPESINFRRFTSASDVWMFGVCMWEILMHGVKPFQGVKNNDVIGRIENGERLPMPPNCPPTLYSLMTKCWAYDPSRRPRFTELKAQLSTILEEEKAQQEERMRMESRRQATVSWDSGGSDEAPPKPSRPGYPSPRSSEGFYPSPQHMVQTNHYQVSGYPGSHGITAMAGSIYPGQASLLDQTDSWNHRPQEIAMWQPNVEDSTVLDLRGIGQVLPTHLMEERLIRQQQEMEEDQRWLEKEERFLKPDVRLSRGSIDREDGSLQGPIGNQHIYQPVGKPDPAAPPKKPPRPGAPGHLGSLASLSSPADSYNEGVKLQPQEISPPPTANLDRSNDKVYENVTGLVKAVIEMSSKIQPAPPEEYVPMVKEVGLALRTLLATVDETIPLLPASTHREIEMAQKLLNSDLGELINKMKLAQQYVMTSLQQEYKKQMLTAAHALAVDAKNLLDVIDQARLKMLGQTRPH
# [10] = molecular target: Tyrosine-protein kinase BTK (Homo sapiens, UniProt Q06187); format: functional
# [11] = molecular target: Misshapen-like kinase 1 (Homo sapiens, UniProt Q8N4C8); format: functional;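 also: kinome panel screen with MINK as the panel member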
# [12] = molecular target: Mitogen-activated protein kinase kinase kinase kinase 4 (Homo sapiens, UniProt O95819); format: functional
# [13] = molecular target: Tyrosine-protein kinase Lck (Homo sapiens, UniProt P06239); format: functional;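 also: lck was assayed as one member of a kinase panel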
# Tyrosine-protein kinase Lck, sequence (P06239 whole entry): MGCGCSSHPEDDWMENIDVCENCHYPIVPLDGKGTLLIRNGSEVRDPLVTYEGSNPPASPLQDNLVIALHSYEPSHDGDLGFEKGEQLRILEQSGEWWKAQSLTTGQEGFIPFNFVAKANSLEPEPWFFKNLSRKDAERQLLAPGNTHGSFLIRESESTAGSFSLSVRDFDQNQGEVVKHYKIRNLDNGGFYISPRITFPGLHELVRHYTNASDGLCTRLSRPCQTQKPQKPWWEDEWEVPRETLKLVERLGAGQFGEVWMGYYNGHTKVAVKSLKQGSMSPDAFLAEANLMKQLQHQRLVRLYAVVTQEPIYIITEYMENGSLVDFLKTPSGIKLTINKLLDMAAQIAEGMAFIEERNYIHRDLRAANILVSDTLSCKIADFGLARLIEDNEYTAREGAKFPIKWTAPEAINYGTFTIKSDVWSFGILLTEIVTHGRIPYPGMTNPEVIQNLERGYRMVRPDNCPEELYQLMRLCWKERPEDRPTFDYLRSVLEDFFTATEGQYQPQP
# [14] = molecular target: Vascular endothelial growth factor receptor 2 (Homo sapiens, UniProt P35968); format: functional
# Vascular endothelial growth factor receptor 2, sequence (P35968 whole entry): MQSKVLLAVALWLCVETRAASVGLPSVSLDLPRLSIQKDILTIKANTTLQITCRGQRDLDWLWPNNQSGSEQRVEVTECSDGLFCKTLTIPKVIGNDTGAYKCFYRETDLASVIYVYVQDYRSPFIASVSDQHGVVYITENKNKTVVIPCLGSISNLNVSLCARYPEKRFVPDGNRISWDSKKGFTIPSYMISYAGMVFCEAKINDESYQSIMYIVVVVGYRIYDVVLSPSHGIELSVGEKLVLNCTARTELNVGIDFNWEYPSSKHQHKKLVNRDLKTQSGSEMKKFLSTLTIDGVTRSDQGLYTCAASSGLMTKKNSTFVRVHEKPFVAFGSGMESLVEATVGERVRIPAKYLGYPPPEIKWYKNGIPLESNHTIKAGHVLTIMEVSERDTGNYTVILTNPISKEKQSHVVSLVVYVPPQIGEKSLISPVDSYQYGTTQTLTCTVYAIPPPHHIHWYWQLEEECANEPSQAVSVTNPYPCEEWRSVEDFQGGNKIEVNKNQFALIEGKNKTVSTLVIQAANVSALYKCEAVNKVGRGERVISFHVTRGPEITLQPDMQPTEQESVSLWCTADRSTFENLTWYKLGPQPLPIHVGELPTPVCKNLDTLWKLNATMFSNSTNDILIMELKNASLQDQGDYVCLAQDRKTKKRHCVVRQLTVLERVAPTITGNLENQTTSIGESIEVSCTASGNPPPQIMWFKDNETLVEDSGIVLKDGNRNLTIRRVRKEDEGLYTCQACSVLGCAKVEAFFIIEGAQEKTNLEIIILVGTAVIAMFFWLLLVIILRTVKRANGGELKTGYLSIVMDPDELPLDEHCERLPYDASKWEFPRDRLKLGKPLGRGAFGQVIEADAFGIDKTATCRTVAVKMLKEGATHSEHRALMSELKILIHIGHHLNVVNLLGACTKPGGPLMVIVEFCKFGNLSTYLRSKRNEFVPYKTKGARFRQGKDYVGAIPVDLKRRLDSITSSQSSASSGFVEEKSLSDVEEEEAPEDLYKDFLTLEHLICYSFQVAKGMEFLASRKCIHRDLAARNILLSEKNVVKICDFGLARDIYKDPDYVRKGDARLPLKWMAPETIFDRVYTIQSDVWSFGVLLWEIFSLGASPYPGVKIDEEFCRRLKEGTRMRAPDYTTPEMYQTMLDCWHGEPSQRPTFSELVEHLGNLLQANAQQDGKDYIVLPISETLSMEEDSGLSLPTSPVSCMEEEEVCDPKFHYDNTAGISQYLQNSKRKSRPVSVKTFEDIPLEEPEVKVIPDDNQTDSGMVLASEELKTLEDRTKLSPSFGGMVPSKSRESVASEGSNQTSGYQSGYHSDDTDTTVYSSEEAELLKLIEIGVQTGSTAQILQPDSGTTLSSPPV
# [15] = molecular target: Macrophage colony-stimulating factor 1 receptor (Homo sapiens, UniProt P07333); format: functional;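 also: value comes from the Navigating the Kinome screening panel, CSF1R member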
# [16] = molecular target: T1, Apoptotic protease-activating factor 1 (Homo sapiens, UniProt O14727); assay: SAR analysis of small molecule inhibitors of Apaf-1 in a Fluorescent assay.; format: functional; details: read-out: IC50_Mean
# T1 sequence (O14727 whole entry): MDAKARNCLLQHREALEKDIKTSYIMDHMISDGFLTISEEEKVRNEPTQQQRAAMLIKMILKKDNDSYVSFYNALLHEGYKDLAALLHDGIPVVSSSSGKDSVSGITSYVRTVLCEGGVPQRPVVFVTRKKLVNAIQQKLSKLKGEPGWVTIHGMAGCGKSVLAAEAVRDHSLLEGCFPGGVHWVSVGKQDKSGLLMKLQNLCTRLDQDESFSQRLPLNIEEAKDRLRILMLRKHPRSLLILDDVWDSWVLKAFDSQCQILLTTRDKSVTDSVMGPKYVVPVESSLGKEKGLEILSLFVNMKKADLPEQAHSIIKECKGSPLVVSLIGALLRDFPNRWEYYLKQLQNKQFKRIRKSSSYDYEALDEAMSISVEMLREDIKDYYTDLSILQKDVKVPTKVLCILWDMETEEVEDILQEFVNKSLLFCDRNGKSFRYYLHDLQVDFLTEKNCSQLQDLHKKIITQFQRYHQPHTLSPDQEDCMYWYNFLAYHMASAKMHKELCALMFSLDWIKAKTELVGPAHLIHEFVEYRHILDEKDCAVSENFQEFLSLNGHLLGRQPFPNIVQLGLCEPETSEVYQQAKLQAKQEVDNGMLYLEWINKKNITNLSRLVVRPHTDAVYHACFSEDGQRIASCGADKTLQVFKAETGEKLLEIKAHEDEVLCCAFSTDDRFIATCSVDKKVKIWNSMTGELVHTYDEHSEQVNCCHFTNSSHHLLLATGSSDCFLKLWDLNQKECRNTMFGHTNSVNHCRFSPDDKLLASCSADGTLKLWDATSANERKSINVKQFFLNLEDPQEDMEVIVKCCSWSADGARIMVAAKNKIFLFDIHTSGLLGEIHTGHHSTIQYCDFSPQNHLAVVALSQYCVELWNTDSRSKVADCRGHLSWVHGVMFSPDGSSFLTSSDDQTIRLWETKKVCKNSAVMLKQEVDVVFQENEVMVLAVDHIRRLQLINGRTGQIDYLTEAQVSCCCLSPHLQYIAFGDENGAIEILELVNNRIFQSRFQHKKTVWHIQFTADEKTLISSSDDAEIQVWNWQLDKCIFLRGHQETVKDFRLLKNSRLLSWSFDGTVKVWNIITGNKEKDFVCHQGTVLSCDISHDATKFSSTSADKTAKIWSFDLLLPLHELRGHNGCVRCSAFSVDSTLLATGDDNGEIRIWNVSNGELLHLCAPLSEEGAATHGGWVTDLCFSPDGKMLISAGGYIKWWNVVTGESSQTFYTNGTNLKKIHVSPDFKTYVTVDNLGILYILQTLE
# [17] = tested on: INS1; assay: beta cell apoptosis inhibitors, cytokine rescue, dose response, luminescence, retest (AID 449756); format: functional, cell-based; details: Rattus norvegicus;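 also: cell death triggered by IL-1 beta plus TNF-alpha plus IFN-gamma mixture; protective hits raise ATP signal compared with cytokine alone wells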
# [18] = cytotoxicity toward DRD oncogenic fibroblasts, dose response, cell-based, non-viral oncogenic, luminescence (AID 1934); format: functional; details: Homo sapiens
# [19] = molecular target: T2, Streptokinase A (Streptococcus pyogenes serotype M1, UniProt P10520); assay: S. pyogenes streptokinase expression inhibitors, potency, dose response, plasminogen activation absorbance, OD405 (AID 1914); format: functional, Streptococcus pyogenes M1 GAS;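 also: secreted streptokinase activity via plasminogen activation per viability signal from cell pellet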
# T2 sequence (P10520 whole entry): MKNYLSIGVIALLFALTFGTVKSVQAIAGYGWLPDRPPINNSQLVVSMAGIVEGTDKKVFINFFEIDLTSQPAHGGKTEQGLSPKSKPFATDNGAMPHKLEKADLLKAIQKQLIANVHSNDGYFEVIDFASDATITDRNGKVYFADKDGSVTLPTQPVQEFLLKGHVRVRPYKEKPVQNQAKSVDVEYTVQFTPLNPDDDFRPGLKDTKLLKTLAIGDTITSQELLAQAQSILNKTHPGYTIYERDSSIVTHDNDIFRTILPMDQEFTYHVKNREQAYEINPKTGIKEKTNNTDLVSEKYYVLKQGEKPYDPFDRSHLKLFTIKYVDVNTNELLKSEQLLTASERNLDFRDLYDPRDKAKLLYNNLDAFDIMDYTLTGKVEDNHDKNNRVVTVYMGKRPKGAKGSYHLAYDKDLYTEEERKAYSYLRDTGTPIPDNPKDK
# [20] = cells; format: functional, cell-based
# [21] = tested on: Streptococcus; assay: Group A Streptococcus viability loss, dose response, counter-screen for streptokinase expression inhibitor project, luminescence, BacTiterGlo (AID 1915); format: functional, organism-based;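 also: potency for reduction of bacterial viability or growth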
# [22] = tested on: BJ; assay: cytotoxicity toward BJ-TERT-LT-ST fibroblasts, dose response, cell-based, RAS-independent, luminescence (AID 1935); format: functional; details: Homo sapiens;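 also: BJ fibroblasts immortalized with TERT plus LT and ST oncogenes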
# [23] = cells; format: functional, cell-based; remark: listed apart in the source
# [24] = tested on: BJ; assay: cytotoxicity toward BJ-TERT fibroblasts, dose response, cell-based, RAS-independent, luminescence (AID 1933); format: functional; details: Homo sapiens
# [25] = tested on: BJ; assay: cytotoxicity toward Ras-transformed BJeLR fibroblasts, dose response, cell-based, alamar blue fluorescence, cherrypicked samples (AID 2631); format: functional; details: Homo sapiens;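 also: confirmatory dose-response assay in RAS-dependent BJ fibroblasts engineered with TERT, LT and ST, with cytotoxicity read by fluorescence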
# [26] = tested on: BJ; assay: cells; format: functional, cell-based; details: Homo sapiens
# [27] = tested on: Streptococcus sp. 'group A'; assay: growth inhibition of control SK(-) GAS strain, dose response, counter-screen for streptokinase expression inhibitor project, luminescence, kanamycin, BacTiterGlo, confirmation (AID 1900); format: functional, organism-based
# [28] = molecular target: T1, Apoptotic protease-activating factor 1; assay: SAR analysis of small molecule Inhibitors of Apaf-1 in a Fluorescent assay - set 2.; format: functional; details: read-out: IC50_Mean
# [29] = molecular target: Cytochrome P450 3A4 (Homo sapiens, UniProt P08684);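 also: CYP3A4 tested as one member of a cytochrome P450 panel screen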
# Cytochrome P450 3A4, sequence (P08684 whole entry): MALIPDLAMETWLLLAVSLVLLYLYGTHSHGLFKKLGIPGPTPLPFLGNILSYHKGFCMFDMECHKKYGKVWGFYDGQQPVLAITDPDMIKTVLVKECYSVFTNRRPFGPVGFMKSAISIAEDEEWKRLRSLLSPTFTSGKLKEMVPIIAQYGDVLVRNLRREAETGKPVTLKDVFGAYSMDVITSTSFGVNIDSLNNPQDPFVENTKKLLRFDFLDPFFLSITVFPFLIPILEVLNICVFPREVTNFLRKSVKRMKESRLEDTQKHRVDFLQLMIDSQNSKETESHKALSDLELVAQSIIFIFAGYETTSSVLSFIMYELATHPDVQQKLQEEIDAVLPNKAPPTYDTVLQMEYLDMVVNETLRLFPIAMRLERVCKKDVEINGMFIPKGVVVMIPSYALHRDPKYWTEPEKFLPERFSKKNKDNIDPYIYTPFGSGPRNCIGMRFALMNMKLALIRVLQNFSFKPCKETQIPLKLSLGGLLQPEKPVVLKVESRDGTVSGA
# [30] = SAR analysis of small molecule inhibitors of Apaf-1 using a LZ-Caspase-9/Caspase-3 Fluorescent Selectivity assay - Set 2.; format: functional; details: read-out: IC50_Mean
smiles,measurement,setting,value
CCOc1ccc(-c2nc(CSCC(=O)N3CCCC3)c(C)o2)cc1,IC50,[1],> 80 µM (inactive)
same,IC50,[2],46.6 µM (inactive)
same,IC50,[3],> 80 µM (inactive)
N#Cc1cccc(Nc2ncnc(Nc3ccc(F)cc3)n2)c1,Ki,[4],> 3.16 µM (inactive)
same,Ki,[5],0.1 µM (active)
O=C(Cc1ccccc1)Nc1cccc(-c2nc3sccn3c2-c2ccnc(Nc3ccccc3Cl)n2)c1,Ki,[6],> 6.31 µM (inactive)
same,Ki,[7],> 6.31 µM (inactive)
same,Ki,[8],1.26 µM (active)
same,Ki,[9],3.16 µM (active)
same,Ki,[10],> 6.31 µM (inactive)
same,Ki,[11],> 5.01 µM (inactive)
same,Ki,[12],> 5.01 µM (inactive)
same,Ki,[13],> 6.31 µM (inactive)
same,Ki,[14],0.501 µM (active)
same,Ki,[15],0.631 µM (active)
Cc1nc2cc(-c3nc4cc(NC(=O)c5cccs5)ccc4[nH]3)ccc2[nH]1,IC50,[16],41.2 µM (active)
CCCc1sc(N/N=C/c2ccccn2)nc1-c1ccc(F)cc1,AC50,[17],0.904 µM (active)
same,EC50,[18],19.9 µM (active)
same,EC50,[19],> 150 µM (not active)
same,EC50,[20],38.1 µM (active)
same,EC50,[21],10.8 µM (active)
same,EC50,[22],7.71 µM (active)
same,EC50,[23],74.4 µM (active)
same,EC50,[24],6.54 µM (active)
same,EC50,[25],19.4 µM (active)
same,EC50,[26],10.7 µM (active)
same,EC50,[27],7.2 µM (active)
O=C1C(=O)N(Cc2ccc(Cl)c(Cl)c2)c2ccccc21,IC50,[28],34 µM (active)
same,AC50,[29],7.94 µM (inconclusive)
same,IC50,[30],22.7 µM (active)
